Test results from paper PMC12037410, “Pharmacological targeting of BMAL1 modulates circadian and immune pathways” (Nature Chemical Biology, 2025).

Biological target: BMAL1 (Homo sapiens, UniProt O00327)
Parameters: PASB domain (residues 338–449); Protein thermal shift (PTS) fragment screen on recombinant human BMAL1(PASB), shift of melting temperature
Settings: dTmB; binder

Sequence of BMAL1 (O00327 338-449): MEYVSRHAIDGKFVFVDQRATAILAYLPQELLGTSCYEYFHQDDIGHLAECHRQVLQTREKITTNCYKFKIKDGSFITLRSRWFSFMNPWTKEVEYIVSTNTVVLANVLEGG

SMILES: Cc1nccn1CCO [Prestw-Frag-1517, Compound 258]
- Bmal1(PASB) dTmB: -0.20 °C

SMILES: CNCC(c1ccc(OC)cc1)C1(O)CCCCC1 (stereo not shown) [Prestw-Frag-1523, Compound 157]
- Bmal1(PASB) dTmB: -0.81 °C

SMILES: CN(C)C(=O)Oc1ccccc1 [Prestw-Frag-1540, Compound 384]
- Bmal1(PASB) dTmB: -0.26 °C

SMILES: Nc1ccc([N+](=O)[O-])cc1Cl [Prestw-Frag-1543, Compound 463]
- Bmal1(PASB) dTmB: 0.66 °C

SMILES: O=C(Nc1ccccc1Cl)c1ccccc1O [Prestw-Frag-1545, Compound 383]
- Bmal1(PASB) dTmB: 1.33 °C

SMILES: COC(=O)C1=C(C)NC(C)=C(C(=O)OC)C1 [Prestw-Frag-1547, Compound 26]
- Bmal1(PASB) dTmB: -1.89 °C

SMILES: COc1ccc(N2CCN(c3ccc(N)cc3)CC2)cc1 [Prestw-Frag-1557, Compound 35]
- Bmal1(PASB) dTmB: 0.19 °C

SMILES: O=c1[nH]nc(Cc2ccc(Cl)cc2)c2ccccc12 [Prestw-Frag-1559, Compound 61]
- Bmal1(PASB) dTmB: -0.44 °C

SMILES: O=c1[nH]ncc2ccccc12 [Prestw-Frag-1560, Compound 345]
- Bmal1(PASB) dTmB: -0.38 °C

SMILES: O=c1[nH]nc(Cc2ccccc2)c2ccccc12 [Prestw-Frag-1561, Compound 106]
- Bmal1(PASB) dTmB: -0.90 °C

SMILES: CC(C)CC(N)C1(c2ccc(Cl)cc2)CCC1 (stereo not shown) [Prestw-Frag-1566, Compound 459]
- Bmal1(PASB) dTmB: -2.54 °C

SMILES: Cc1cc(C(C)(C)C)cc(C)c1CC1=NCCN1 [Prestw-Frag-1575, Compound 425]
- Bmal1(PASB) dTmB: -1.26 °C

SMILES: O=c1[nH]c2ccccc2n1C1CCNCC1 [Prestw-Frag-1587, Compound 407]
- Bmal1(PASB) dTmB: -0.86 °C

SMILES: OCCOc1cccc2[nH]ccc12 [Prestw-Frag-1595, Compound 110]
- Bmal1(PASB) dTmB: -0.17 °C

SMILES: NCCc1c[nH]c2ccc(O)cc12 [Prestw-Frag-1643, Compound 78]
- Bmal1(PASB) dTmB: -0.60 °C

SMILES: Oc1ccc2[nH]ccc2c1 [Prestw-Frag-1645, Compound 308]
- Bmal1(PASB) dTmB: 0.24 °C

SMILES: Cc1cc(N)no1 [Prestw-Frag-1647, Compound 292]
- Bmal1(PASB) dTmB: -0.16 °C

SMILES: Nc1ccnn1-c1ccccc1 [Prestw-Frag-1648, Compound 208]
- Bmal1(PASB) dTmB: -0.34 °C

SMILES: OC(c1ccccc1)(c1ccccc1)C1CCNCC1 [Prestw-Frag-1654, Compound 403]
- Bmal1(PASB) dTmB: -1.27 °C

SMILES: NC(=O)CN1C(=O)c2ccccc2C1=O [Prestw-Frag-1661, Compound 297]
- Bmal1(PASB) dTmB: -0.12 °C

SMILES: Cc1ccc(S(=O)(=O)NC(N)=O)cc1 [Prestw-Frag-1667, Compound 248]
- Bmal1(PASB) dTmB: 0.07 °C

SMILES: O=c1[nH]nc2ccccn12 [Prestw-Frag-1673, Compound 287]
- Bmal1(PASB) dTmB: -1.05 °C

SMILES: O=C(O)C(CO)c1ccccc1 (stereo not shown) [Prestw-Frag-1686, Compound 284]
- Bmal1(PASB) dTmB: -1.23 °C

SMILES: CC(N)COc1ccccc1 (stereo not shown) [Prestw-Frag-1691, Compound 270]
- Bmal1(PASB) dTmB: 0.11 °C

SMILES: c1cc2c(s1)CCNC2 [Prestw-Frag-1694, Compound 112]
- Bmal1(PASB) dTmB: -0.53 °C

SMILES: Clc1cccc(CN2CCNCC2)c1 [Prestw-Frag-1700, Compound 62]
- Bmal1(PASB) dTmB: -0.92 °C

SMILES: Clc1ccc(-c2cncnc2)cc1 [Prestw-Frag-1704, Compound 385]
- Bmal1(PASB) dTmB: -1.51 °C

SMILES: CCCC(=O)Nc1ccc(O)c(C(C)=O)c1 [Prestw-Frag-1716, Compound 95]
- Bmal1(PASB) dTmB: -1.04 °C

SMILES: CCCC(=O)Nc1cccc(C(C)=O)c1 [Prestw-Frag-1717, Compound 428]
- Bmal1(PASB) dTmB: -0.30 °C

SMILES: c1ccc2c(c1)CNc1ccccc1C2 [Prestw-Frag-1722, Compound 6]
- Bmal1(PASB) dTmB: -1.75 °C

SMILES: COc1cc(C(N)=O)cc(OC)c1OC [Prestw-Frag-1731, Compound 341]
- Bmal1(PASB) dTmB: -0.33 °C

SMILES: CCN(CC)CCOC(=O)c1ccccc1 [Prestw-Frag-1735, Compound 406]
- Bmal1(PASB) dTmB: -0.48 °C

SMILES: O=C1CCOc2ccccc21 [Prestw-Frag-1740, Compound 360]
- Bmal1(PASB) dTmB: -0.05 °C

SMILES: Clc1ccc(C(c2ccccc2)N2CCNCC2)cc1 (stereo not shown) [Prestw-Frag-1741, Compound 476]
- Bmal1(PASB) dTmB: -4.68 °C

SMILES: O=C(NCc1cccnc1)c1ccc(O)cc1 [Prestw-Frag-1747, Compound 457]
- Bmal1(PASB) dTmB: -0.46 °C

SMILES: CC(=O)Nc1ncc([N+](=O)[O-])s1 [Prestw-Frag-1750, Compound 291]
- Bmal1(PASB) dTmB: 0.07 °C

SMILES: O=C(O)CCCc1ccc(-c2ccccc2)cc1 [Prestw-Frag-1767, Compound 455]
- Bmal1(PASB) dTmB: -2.43 °C

SMILES: O=C(O)CCC(=O)c1ccccc1 [Prestw-Frag-1768, Compound 87]
- Bmal1(PASB) dTmB: -0.11 °C

SMILES: CNCCC(c1ccccc1)c1ccccc1 [Prestw-Frag-1772, Compound 410]
- Bmal1(PASB) dTmB: -1.48 °C

SMILES: COc1ccc(Cl)cc1C(N)=O [Prestw-Frag-1775, Compound 316]
- Bmal1(PASB) dTmB: -0.78 °C

SMILES: CC(=O)Nc1ccccn1 [Prestw-Frag-1782, Compound 170]
- Bmal1(PASB) dTmB: -0.28 °C

SMILES: Cc1cccc(O)c1 [Prestw-Frag-1791, Compound 216]
- Bmal1(PASB) dTmB: -0.80 °C

SMILES: Cc1c(N)c(=O)n(-c2ccccc2)n1C [Prestw-Frag-1807, Compound 18]
- Bmal1(PASB) dTmB: -0.46 °C

SMILES: COc1ccc(OCC(N)=O)cc1 [Prestw-Frag-1812, Compound 300]
- Bmal1(PASB) dTmB: 0.07 °C

SMILES: c1ccc(C(c2ccccc2)N2CCCNCC2)cc1 [Prestw-Frag-1817, Compound 445]
- Bmal1(PASB) dTmB: -1.89 °C

SMILES: NNCCc1ccccc1 [Prestw-Frag-1818, Compound 31]
- Bmal1(PASB) dTmB: -1.46 °C

SMILES: Cc1[nH]c2ccccc2c1CC(=O)O [Prestw-Frag-1824, Compound 477]
- Bmal1(PASB) dTmB: -6.48 °C

SMILES: O=C(COc1ccc(Cl)cc1)N1CCNCC1 [Prestw-Frag-1832, Compound 244]
- Bmal1(PASB) dTmB: -1.08 °C

SMILES: Cc1ccccc1NC(=O)C(C)N (stereo not shown) [Prestw-Frag-1856, Compound 389]
- Bmal1(PASB) dTmB: 0.12 °C

SMILES: CC(C(=O)O)c1ccccc1 (stereo not shown) [Prestw-Frag-1859, Compound 194]
- Bmal1(PASB) dTmB: -0.02 °C

SMILES: O=C(c1ccccc1)c1ccccc1 [Prestw-Frag-1860, Compound 423]
- Bmal1(PASB) dTmB: -0.99 °C

SMILES: CS(=O)(=O)Nc1ccccc1Oc1ccccc1 [Prestw-Frag-1861, Compound 432]
- Bmal1(PASB) dTmB: -1.83 °C

SMILES: COC(=O)C(O)(c1ccccc1)C1CCCCC1 (stereo not shown) [Prestw-Frag-1867, Compound 446]
- Bmal1(PASB) dTmB: -1.54 °C

SMILES: c1ccc(CC2CCNCC2)cc1 [Prestw-Frag-1868, Compound 296]
- Bmal1(PASB) dTmB: -0.76 °C

SMILES: O=C1NCN(c2ccccc2)C12CCNCC2 [Prestw-Frag-1869, Compound 339]
- Bmal1(PASB) dTmB: -0.72 °C

SMILES: Nc1ccnc2ccccc12 [Prestw-Frag-1878, Compound 323]
- Bmal1(PASB) dTmB: -0.67 °C

SMILES: CC(=O)c1ccccc1O [Prestw-Frag-1884, Compound 211]
- Bmal1(PASB) dTmB: -0.17 °C

SMILES: COc1ccc(CNCCN(C)C)cc1 [Prestw-Frag-1887, Compound 172]
- Bmal1(PASB) dTmB: -0.14 °C

SMILES: CN(C)Cc1ccc(CSCCN)o1 [Prestw-Frag-1889, Compound 8]
- Bmal1(PASB) dTmB: -2.44 °C

SMILES: Cc1ccc(S(N)(=O)=O)cc1 [Prestw-Frag-1894, Compound 198]
- Bmal1(PASB) dTmB: -0.38 °C

SMILES: NS(=O)(=O)c1ccccc1 [Prestw-Frag-1895, Compound 148]
- Bmal1(PASB) dTmB: -0.29 °C

SMILES: COc1ccc2nc(N)sc2c1 [Prestw-Frag-1898, Compound 305]
- Bmal1(PASB) dTmB: 1.10 °C

SMILES: O=C1Nc2ccccc2Nc2ccccc21 [Prestw-Frag-1904, Compound 439]
- Bmal1(PASB) dTmB: 0.05 °C

SMILES: CCCOc1ccccc1C(=N)N [Prestw-Frag-1910, Compound 398]
- Bmal1(PASB) dTmB: -0.43 °C

SMILES: Cc1ccccc1-c1ccccc1CO [Prestw-Frag-1923, Compound 451]
- Bmal1(PASB) dTmB: -1.24 °C

SMILES: OC(c1ccc(F)cc1)c1ccc(F)cc1 [Prestw-Frag-1924, Compound 461]
- Bmal1(PASB) dTmB: -1.89 °C

SMILES: NCCOC(c1ccc(F)cc1)c1ccc(F)cc1 [Prestw-Frag-1925, Compound 448]
- Bmal1(PASB) dTmB: -1.45 °C

SMILES: CC(C)(C)NCC(O)c1ccccc1 (stereo not shown) [Prestw-Frag-1929, Compound 213]
- Bmal1(PASB) dTmB: -0.34 °C

SMILES: OCc1cc(O)cc(O)c1 [Prestw-Frag-1935, Compound 76]
- Bmal1(PASB) dTmB: -0.85 °C

SMILES: CC(N)C(=O)c1ccccc1 (stereo not shown) [Prestw-Frag-1941, Compound 223]
- Bmal1(PASB) dTmB: -0.18 °C

SMILES: OCCCN1CCN(c2ccccc2)CC1 [Prestw-Frag-1944, Compound 178]
- Bmal1(PASB) dTmB: -0.31 °C

SMILES: OCCN1CCN(c2ccccc2)CC1 [Prestw-Frag-1945, Compound 144]
- Bmal1(PASB) dTmB: -0.42 °C

SMILES: O=C(CCN1CCCCC1)c1ccccc1 [Prestw-Frag-1953, Compound 479]
- Bmal1(PASB) dTmB: -3.22 °C

SMILES: O=C(Cc1ccccc1)NO [Prestw-Frag-1961, Compound 252]
- Bmal1(PASB) dTmB: -0.30 °C

SMILES: O=C(O)c1ccc(Oc2ccccc2)cc1 [Prestw-Frag-1968, Compound 155]
- Bmal1(PASB) dTmB: -0.89 °C

SMILES: NC(=O)Cc1ccccn1 [Prestw-Frag-1971, Compound 173]
- Bmal1(PASB) dTmB: -0.17 °C

SMILES: NS(=O)(=O)c1ccc(Cl)cc1 [Prestw-Frag-1977, Compound 122]
- Bmal1(PASB) dTmB: -0.58 °C

SMILES: CCN(CC)CCNc1ccccc1 [Prestw-Frag-1993, Compound 214]
- Bmal1(PASB) dTmB: -0.30 °C

SMILES: Cc1cccc(C)c1NC(=O)CN1CCNCC1 [Prestw-Frag-1996, Compound 391]
- Bmal1(PASB) dTmB: -0.66 °C

SMILES: NCCc1cnc[nH]1 [Prestw-Frag-1999, Compound 330]
- Bmal1(PASB) dTmB: -0.23 °C

SMILES: Cc1c[nH]c(=O)[nH]c1=O [Prestw-Frag-2017, Compound 255]
- Bmal1(PASB) dTmB: -0.13 °C

SMILES: CNC(=O)c1ccc(Cl)cc1 [Prestw-Frag-2018, Compound 319]
- Bmal1(PASB) dTmB: -0.45 °C

SMILES: Cc1noc(N)c1C [Prestw-Frag-2021, Compound 114]
- Bmal1(PASB) dTmB: -0.18 °C

SMILES: CNS(=O)(=O)c1ccccc1 [Prestw-Frag-2023, Compound 256]
- Bmal1(PASB) dTmB: -0.20 °C

SMILES: CN(C)CCNC(=O)c1ccc(N)cc1 [Prestw-Frag-2031, Compound 430]
- Bmal1(PASB) dTmB: -0.84 °C
